Reference: patent publication US20070197522A1, “Dpp-iv inhibitors” (priority 2004, published 2007)

What follows are compounds tested against T1, DPP-IV (Homo sapiens, UniProt P27487) (assay: Inhibition of DPP-IV peptidase activity, continuous fluorimetric assay (Gly-Pro-AMC cleavage)). Details: IC50.
T1 construct: Soluble human DPP-IV lacking the transmembrane anchor (Gly31-Pro766) was expressed in a recombinant YEAST-strain; Pre-Pro-alpha-mating factor leader (secretion fusion) (N, cleaved yes); made in house
T1 sequence (P27487 31-766): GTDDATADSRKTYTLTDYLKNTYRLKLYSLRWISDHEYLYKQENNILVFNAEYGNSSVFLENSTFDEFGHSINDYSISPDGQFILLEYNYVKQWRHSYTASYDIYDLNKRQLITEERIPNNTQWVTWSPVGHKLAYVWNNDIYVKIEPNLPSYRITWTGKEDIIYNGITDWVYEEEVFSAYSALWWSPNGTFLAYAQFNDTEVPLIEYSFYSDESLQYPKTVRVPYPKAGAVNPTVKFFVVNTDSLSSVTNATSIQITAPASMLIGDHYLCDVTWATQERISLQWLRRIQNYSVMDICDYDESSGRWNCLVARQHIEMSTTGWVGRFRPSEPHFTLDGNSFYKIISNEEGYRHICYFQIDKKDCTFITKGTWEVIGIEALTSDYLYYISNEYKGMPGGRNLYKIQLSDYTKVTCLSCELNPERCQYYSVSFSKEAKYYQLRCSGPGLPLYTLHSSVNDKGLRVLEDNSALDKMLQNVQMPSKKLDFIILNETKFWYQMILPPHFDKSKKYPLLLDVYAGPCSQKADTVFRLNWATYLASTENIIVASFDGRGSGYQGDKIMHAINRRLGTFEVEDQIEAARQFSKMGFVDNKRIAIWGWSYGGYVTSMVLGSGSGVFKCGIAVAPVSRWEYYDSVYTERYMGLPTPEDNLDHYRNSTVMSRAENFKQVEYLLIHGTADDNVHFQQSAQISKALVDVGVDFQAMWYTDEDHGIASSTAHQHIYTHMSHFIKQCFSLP
Assay type: biochemical, human and porcine
Experimental: Inhibition of DPP-IV peptidase activity was monitored with a continuous fluorimetric assay. This assay is based on the cleavage of the substrate Gly-Pro-AMC (Bachem) by DPP-IV, releasing free AMC. The assay is carried out in 96-well microtiterplates. In a total volume of 100 μL, compounds are preincubated with 50 pM DPP-IV employing a buffer containing 10 mM Hepes, 150 mM NaCl, 0.005% Tween 20 (pH 7.4). […] The final concentration of DMSO is 1%. The inhibitory potential of the compounds were determined.
Soluble human DPP-IV lacking the transmembrane anchor (Gly31-Pro766) was expressed in a recombinant YEAST-strain as Pre-Pro-alpha-mating fusion. The secreted product (rhuDPP-IV-Gly31-Pro766) was purified from fermentation broth (>90% purity).

IC50 | Structure (SMILES)
0.101 to 1 µM | N[C@@H](CC(=O)NCc1n[nH]c2ccc(Cl)cc12)Cc1ccccc1F [Example 161]

Same assay, conditions: IC50, inhibition of DPP-IV peptidase activity; 50 pM DPP-IV, 16 μM Gly-Pro-AMC, pH 7.4, 25° C.; values grouped in 3 classes

Structure (SMILES) | IC50
CN(C(=O)C[C@H](N)Cc1ccccc1F)[C@@H](CN1CCCC1)c1ccccc1 [Example 179, (R)-3-Amino-4-(2-fluoro-phenyl)-N-methyl-N-(1-phenyl-2-pyrrolidin-1-yl-ethyl)-butyramide Formic Acid] | 0.101 to 1 µM

Same assay, conditions: inhibition of DPP-IV peptidase activity; 50 pM DPP-IV, 16 μM Gly-Pro-AMC, pH 7.4, 25° C.; values grouped in 3 classes; read-out: IC50

Structure (SMILES) | IC50
CN(C(=O)C[C@H](N)Cc1ccccc1F)C(c1ccccc1)c1ccccc1 [Example 105] | 0.101 to 1 µM
N[C@@H](CC(=O)NCCc1ccc(F)cc1)Cc1ccccc1F [Example 110] | 1 to 2 µM
NC(CC(=O)NCCc1cccc(F)c1)Cc1ccccc1F (stereo not drawn) [Example 111] | 1 to 2 µM
N[C@@H](CC(=O)NCCc1cccc(Cl)c1)Cc1ccccc1F [Example 112] | 0.101 to 1 µM
N[C@@H](CC(=O)NCCc1ccccc1F)Cc1ccccc1F [Example 113] | 0.101 to 1 µM
N[C@@H](CC(=O)NCCc1c(F)cccc1Cl)Cc1ccccc1F [Example 114] | 0.101 to 1 µM
Cc1ccc(CNC(=O)C[C@H](N)Cc2ccccc2F)cc1 [Example 115] | 0.101 to 1 µM
N[C@@H](CC(=O)NCc1cccc2cnccc12)Cc1ccccc1F [Example 116] | 1 to 2 µM
N[C@@H](CC(=O)NCc1ccccc1F)Cc1ccccc1F [Example 117] | 0.101 to 1 µM
N[C@@H](CC(=O)NCc1cccc(F)c1)Cc1ccccc1F [Example 118] | 0.101 to 1 µM
NC(CC(=O)NC1CCc2ccccc21)Cc1ccccc1F (stereo not drawn) [Example 120] | 1 to 2 µM
CN(Cc1ccccc1)C(=O)C[C@H](N)Cc1ccccc1F [Example 121] | 0.101 to 1 µM
CN(Cc1cccnc1)C(=O)C[C@H](N)Cc1ccccc1F [Example 122] | 0.101 to 1 µM
CN(Cc1ccccc1Cl)C(=O)C[C@H](N)Cc1ccccc1F [Example 123] | 0.101 to 1 µM
CN(Cc1cccc(C(F)(F)F)c1)C(=O)C[C@H](N)Cc1ccccc1F [Example 124] | 0.101 to 1 µM
CN(Cc1ccc(F)cc1)C(=O)C[C@H](N)Cc1ccccc1F [Example 125] | 0.101 to 1 µM
COc1ccc(CN(C)C(=O)C[C@H](N)Cc2ccccc2F)cc1 [Example 126] | 0.101 to 1 µM
CN1CCN(c2ccc(CNC(=O)C[C@H](N)Cc3ccccc3F)cc2)CC1 [Example 127] | 0.101 to 1 µM
N#Cc1ccc(CNC(=O)C[C@H](N)Cc2ccccc2F)cc1 [Example 129] | 0.101 to 1 µM

Structure (SMILES) | IC50
CCOc1ccccc1CCNC(=O)C[C@H](N)Cc1ccccc1F [Example 130] | 0.101 to 1 µM
N[C@@H](CC(=O)NCc1cccc2ncccc12)Cc1ccccc1F [Example 138] | 0.101 to 1 µM
N[C@@H](CC(=O)NCc1cccc(OC(F)F)c1)Cc1ccccc1F [Example 139] | 0.101 to 1 µM
Cc1nn(-c2ccccc2)c(C)c1CNC(=O)C[C@H](N)Cc1ccccc1F [Example 140] | 0.101 to 1 µM
CS(=O)(=O)c1ccc(CNC(=O)C[C@H](N)Cc2ccccc2F)cc1 [Example 141] | 0.101 to 1 µM
COc1ccc(Oc2cccc(F)c2CNC(=O)C[C@H](N)Cc2ccccc2F)cc1 [Example 142] | 0.101 to 1 µM
CN(C)CCOc1ccc(CNC(=O)C[C@H](N)Cc2ccccc2F)cc1 [Example 143] | 1 to 2 µM
NC(CC(=O)N(Cc1ccccc1F)C1CC1)Cc1ccccc1F (stereo not drawn) [Example 144] | 0.101 to 1 µM
N[C@@H](CC(=O)N(Cc1cccnc1)C1CC1)Cc1ccccc1F [Example 145] | 0.101 to 1 µM
Cn1c(CNC(=O)C[C@H](N)Cc2ccccc2F)nc2ccccc21 [Example 146] | 0.101 to 1 µM
N[C@@H](CC(=O)NCc1ccc(S(N)(=O)=O)cc1)Cc1ccccc1F [Example 147] | 0.101 to 1 µM
N[C@@H](CC(=O)NCCNC(=O)c1ccccn1)Cc1ccccc1F [Example 148] | 0.101 to 1 µM
Cc1onc(-c2ccccc2)c1CNC(=O)C[C@H](N)Cc1ccccc1F [Example 149] | 0.101 to 1 µM
Cc1ccccc1-n1nc(C)c(CNC(=O)C[C@H](N)Cc2ccccc2F)c1C [Example 151] | 0.101 to 1 µM
N[C@@H](CC(=O)NCc1cc(-c2ccc(Cl)cc2)no1)Cc1ccccc1F [Example 152] | 0.101 to 1 µM
N[C@@H](CC(=O)NCc1ccc(OC(F)F)cc1)Cc1ccccc1F [Example 153] | 1 to 2 µM
N[C@@H](CC(=O)NCc1ccccc1N1CCCCC1)Cc1ccccc1F [Example 154] | 0.101 to 1 µM
N[C@@H](CC(=O)N(CCN1CCOCC1)Cc1cccnc1)Cc1ccccc1F [Example 155] | 0.101 to 1 µM
N[C@@H](CC(=O)NCC(c1ccccc1Cl)N1CCOCC1)Cc1ccccc1F (stereo partly drawn) [Example 156] | 0.101 to 1 µM

Other lines, results leading:

IC50 | Structure (SMILES)
0.101 to 1 µM | N[C@@H](CC(=O)NCC(c1cccc(Cl)c1)N1CCOCC1)Cc1ccccc1F (stereo partly drawn) [Example 157]
0.101 to 1 µM | NC(CC(=O)NCC(c1ccc(Cl)cc1)N1CCOCC1)Cc1ccccc1F (stereo not drawn) [Example 158]
0.101 to 1 µM | CN1CCN(CC(NC(=O)C[C@H](N)Cc2ccccc2F)c2ccccc2)CC1 (stereo partly drawn) [Example 159]
1 to 2 µM | CN1CCN(CC(c2ccccc2)N(C)C(=O)C[C@H](N)Cc2ccccc2F)CC1 (stereo partly drawn) [Example 160]
0.101 to 1 µM | N[C@@H](CC(=O)NCc1cnn(-c2ccccc2)c1)Cc1ccccc1F [Example 163]
0.101 to 1 µM | N[C@@H](CC(=O)NCc1cc(Cl)ccc1-n1cncn1)Cc1ccccc1F [Example 164]
0.101 to 1 µM | NC(CC(=O)NCC(c1ccccc1)N1CCOCC1)Cc1ccccc1F (stereo not drawn) [Example 167]
0.101 to 1 µM | N[C@@H](CC(=O)NCc1cccc(-n2cccn2)c1)Cc1ccccc1F [Example 171]
0.101 to 1 µM | N[C@@H](CC(=O)NCC(c1cccc(Cl)c1)N1CCCC1)Cc1ccccc1F (stereo partly drawn) [Example 172]
0.101 to 1 µM | N[C@@H](CC(=O)N[C@@H](CN1CCCCC1)c1ccccc1)Cc1ccccc1F [Example 173]
0.101 to 1 µM | CC(NC(=O)C[C@H](N)Cc1ccccc1F)c1ccc(-n2ccnc2)cc1 (stereo partly drawn) [Example 174]
1 to 2 µM | CN(Cc1cn2ccccc2n1)C(=O)C[C@H](N)Cc1ccccc1F [Example 175]
< 0.1 µM | CN(CC(c1ccccc1)N1CCOCC1)C(=O)C[C@H](N)Cc1ccccc1F (stereo partly drawn) [Example 177]
< 0.1 µM | CN(CC(c1ccccc1Cl)N1CCCC1)C(=O)C[C@H](N)Cc1ccccc1F (stereo partly drawn) [Example 178]
0.101 to 1 µM | N[C@H](Cc1ccccc1F)CS(=O)(=O)NCc1ccc(C(F)(F)F)nc1 [Example 191, (R)-2-Amino-3-(2-fluoro-phenyl)-Propane-1-sulphonic acid (6-trifluoromethyl-pyridin-3-ylmethyl)-amide]
0.101 to 1 µM | N[C@H](Cc1ccccc1F)CS(=O)(=O)NCc1cccc(C(F)(F)F)c1 [Example 192, (R)-2-Amino-3-(2-fluoro-phenyl)-propane-1-sulphonic acid 3-trifluoromethyl-benzyl-amide]
0.101 to 1 µM | CN(Cc1cccc(C(F)(F)F)c1)S(=O)(=O)C[C@H](N)Cc1ccccc1F [Example 193, (R)-2-Amino-3-(2-fluoro-phenyl)-propane-1-sulphonic acid methyl-(3-trifluoromethyl-benzyl)-amide]
